# Data from US20050143354A1, “Association of an antithrombotic and aspirin” (priority 2002, published 2005).
# Tested on: arterial thrombosis in the guinea-pig
# Assay: arterial thrombosis test in the guinea-pig (cyclic flow reductions after carotid artery lesion)
# Format: in vivo
# Conditions: aspirin 2 mg/kg i.v. alone; not different from control animals
# From the text: This test is based on the model initially described by Roux et al. (Thromb Haemost 71: 252-256, 1994). The guinea-pigs are anaesthetised using ketamine+xylazine (90+12) mg.kg i.m.. The trachea is cannulated and spontaneous respiration by the animals maintained. The jugular vein is cannulated, allowing the intravenous administration of the compounds being tested. The carotid artery is isolated, and a Doppler probe is installed allowing the arterial blood flow to be measured. After stabilisation, a lesion to the artery wall is produced by means of a clip applied distally to the Doppler probe. Subsequent to that lesion, the blood flow decreases. When the flow reaches zero, the artery is lightly shaken, which allows the flow to be restored. The thrombosis process continues, leading again to the flow reducing and ceasing. The thrombotic phenomena accordingly result in cyclic flow reductions (CFR), which are observed over a period of 20 minutes. After that period, the animal is treated, or not, with compound (A), and the CFR are again observed for a period of 20 minutes. The experiments are carried out in control animals or in animals treated by the intravenous route with aspirin (2 mg/kg).
# This study was carried out using the sodium salt of the (R) isomer of compound (A).
smiles,measurement,value
CC(=O)Oc1ccccc1C(=O)O [aspirin],cyclic flow reductions (CFR),8±1 CFR/20 min
